This test concerns the target T1, POsterior Segregation (Caenorhabditis elegans, UniProt G5EF15).
T1 sequence (G5EF15 whole entry): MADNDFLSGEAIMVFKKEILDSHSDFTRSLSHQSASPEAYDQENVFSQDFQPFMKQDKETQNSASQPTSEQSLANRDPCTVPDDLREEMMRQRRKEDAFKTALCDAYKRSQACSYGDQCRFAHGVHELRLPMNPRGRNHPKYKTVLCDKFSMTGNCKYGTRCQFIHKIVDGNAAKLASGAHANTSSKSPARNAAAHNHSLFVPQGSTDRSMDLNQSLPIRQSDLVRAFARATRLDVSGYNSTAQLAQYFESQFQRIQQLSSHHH
Description: disruptors of C. elegans POS-1 RNA interaction – biochemical, fluorescence polarization, dose response (AID 1964).

pEC50: −log10 of the molar value. “And” between values parts separate entries of the source, which are not always exact repeats. Equal entries are not always repeated.

As to `COc1ccc(OC)c(N2C(=O)NC(=O)C(=Cc3c[nH]c4ccccc34)C2=O)c1` [(5E)-1-(2,5-dimethoxyphenyl)-5-(1H-indol-3-ylmethylene)pyrimidine-2,4,6(1H,3H,5H)-trione], the pEC50 is less than 3.52.
Regarding `O=C1NC(=O)N(Cc2ccccc2Cl)C(=O)C1=CNc1ccc(F)cc1` [(5E)-1-(2-chlorobenzyl)-5-[(4-fluoroanilino)methylene]barbituric acid], the pEC50 was less than 3.52.
The figure for `Cc1c(NC=C2C(=O)NC(=O)N(Cc3ccco3)C2=O)c(=O)n(-c2ccccc2)n1C` [(5E)-1-(2-furfuryl)-5-[[(3-keto-1,5-dimethyl-2-phenyl-3-pyrazolin-4-yl)amino]methylene]barbituric acid] is less than 3.52; for `C=c1c(C(=O)OC)c(O)c(=Cc2cccs2)n1-c1ccc(Cl)cc1` [(5E)-1-(4-chlorophenyl)-2-methyl-4-oxo-5-(thiophen-2-ylmethylidene)-3-pyrrolecarboxylic acid methyl ester] it is less than 3.52.
`CCOc1ccc(N2C(=O)NC(=O)C(=Cc3c[nH]c4ccccc34)C2=O)cc1` [(5E)-1-(4-ethoxyphenyl)-5-(1H-indol-3-ylmethylidene)-1,3-diazinane-2,4,6-trione] had a pEC50 of 4.68.
The figure for `O=C1NC(=S)N(c2ccc(F)cc2)C(=O)C1=Cc1ccco1` [(5E)-1-(4-fluorophenyl)-5-(2-furanylmethylidene)-2-sulfanylidene-1,3-diazinane-4,6-dione] is 4.98; for `O=C1NC(=O)N(CCc2ccc(F)cc2)C(=O)C1=CNCCCn1ccnc1` [(5E)-1-[2-(4-fluorophenyl)ethyl]-5-[(3-imidazol-1-ylpropylamino)methylene]barbituric acid] it is less than 3.52; for `C=CCN1C(=O)NC(=O)C(=CNc2ccc(N(CC)CC)cc2)C1=O` [(5E)-1-allyl-5-[[4-(diethylamino)anilino]methylene]barbituric acid] it is 3.96.
The value for `CCN(CC)c1ccc(NC=C2C(=O)NC(=O)N(Cc3ccccc3)C2=O)cc1` [(5E)-1-benzyl-5-[[4-(diethylamino)anilino]methylene]barbituric acid] was 4.52 and < 3.52; that for `O=C1NC(=O)N(Cc2ccccc2)C(=O)C1=CNc1ccc(CN2CCOCC2)cc1` [(5E)-1-benzyl-5-[[4-(morpholin-4-ylmethyl)anilino]methylidene]-1,3-diazinane-2,4,6-trione] was less than 3.52.
The value for `Cc1c(NC=C2C(=O)NC(=O)N(Cc3ccccc3)C2=O)c(=O)n(-c2ccccc2)n1C` [(5E)-1-benzyl-5-[[(1,5-dimethyl-3-oxo-2-phenylpyrazol-4-yl)amino]methylidene]-1,3-diazinane-2,4,6-trione] was less than 3.52; that for `CCCCCCN1C(=O)NC(=O)C(=CNCCCn2ccnc2)C1=O` [(5E)-1-hexyl-5-[[3-(1-imidazolyl)propylamino]methylidene]-1,3-diazinane-2,4,6-trione] was less than 3.52.
With `O=C1NC(=O)N(CCc2ccccc2)C(=O)C1=CNCCCn1ccnc1` [(5E)-5-[(3-imidazol-1-ylpropylamino)methylene]-1-phenethyl-barbituric acid], the negative logarithm of the EC50 (pEC50) was less than 3.52.
The value for `COc1ccc(N2C(=O)NC(=O)C(=Cc3c[nH]c4ccc(Br)cc34)C2=O)c(OC)c1` [(5E)-5-[(5-bromo-1H-indol-3-yl)methylene]-1-(2,4-dimethoxyphenyl)pyrimidine-2,4,6(1H,3H,5H)-trione] was less than 3.52.
Compound `CCN(CC)CCNC=C1C(=O)NC(=O)N(CCc2ccccc2)C1=O` [(5E)-5-[[2-(diethylamino)ethylamino]methylene]-1-phenethyl-barbituric acid] had a pEC50 of less than 3.52.
In turn, `CN(C)CCCNC=C1C(=O)NC(=O)N(CCc2ccc(F)cc2)C1=O` [(5E)-5-[[3-(dimethylamino)propylamino]methylene]-1-[2-(4-fluorophenyl)ethyl]barbituric acid] showed a pEC50 of less than 3.52.
On to `CN(C)c1ccc(NC=C2C(=O)NC(=O)N(CCC3=CCCCC3)C2=O)cc1` [(5Z)-1-[2-(cyclohexen-1-yl)ethyl]-5-[[[4-(dimethylamino)phenyl]amino]methylidene]-1,3-diazinane-2,4,6-trione], for which the pEC50 is less than 3.52.
The compound `CCN(CC)CCNC=C1C(=O)NC(=O)N(Cc2ccccc2)C1=O` [(5Z)-1-benzyl-5-[[2-(diethylamino)ethylamino]methylene]barbituric acid] had a pEC50 of less than 3.52.
The value for `CCOC(=O)C1C(=O)C(=Cc2cn(CC(=O)N3CCCC3)c3ccccc23)S/C1=N\c1ccccc1` (stereo not drawn) [(5Z)-2-anilino-4-keto-5-[[1-(2-keto-2-pyrrolidino-ethyl)indol-3-yl]methylene]thiophene-3-carboxylic acid ethyl ester] was 4.32; that for `C/N=C1/S/C(=C\c2ccc(N3CCCC3)c(F)c2)C(=O)N1C` [(5Z)-5-(3-fluoro-4-pyrrolidino-benzylidene)-3-methyl-2-methylimino-thiazolidin-4-one] was 5.23; that for `CC1=C(C#N)C(=O)N(C)C(=O)C1=CN` [(5Z)-5-(aminomethylidene)-1,4-dimethyl-2,6-dioxopyridine-3-carbonitrile] was less than 3.52.
In turn, `C=CCN1C(=O)NC(=O)C(=CCC=Nc2ccccc2)C1=O` [(5Z)-5-[(E)-3-phenylazanylprop-2-enylidene]-1-prop-2-enyl-1,3-diazinane-2,4,6-trione] had a pEC50 of less than 3.52.
Compound `Cc1cc(C=C2C(=O)NC(=O)N(c3ccccc3)C2=O)c(C)n1-c1ccc(F)cc1` [(5Z)-5-[[1-(4-fluorophenyl)-2,5-dimethyl-3-pyrrolyl]methylidene]-1-phenyl-1,3-diazinane-2,4,6-trione] gave a pEC50 of 4.00.
`COc1cccc(CN=Nc2ncnc(N)c2[N+](=O)[O-])c1OC` [(6-amino-5-nitro-pyrimidin-4-yl)-[(2,3-dimethoxybenzylidene)amino]amine]: the pEC50 is 4.74.
The value for `C=CCc1cccc(C=Nn2cnnc2)c1O` [(6E)-2-allyl-6-[(1,2,4-triazol-4-ylamino)methylene]cyclohexa-2,4-dien-1-one] was 3.65; that for `COc1ccc(N=Cc2cc3c(cc2O)OC(=N)C(C#N)C3c2ccccc2)cc1` (stereo not drawn) [(6E)-2-amino-6-[(4-methoxyanilino)methylidene]-7-oxo-4-phenyl-4H-1-benzopyran-3-carbonitrile] was less than 3.52; that for `Cc1n[nH]c(C)c1Sc1ccccc1/N=C/C1C=C(Cl)C=C([N+](=O)[O-])C1=O` (stereo not drawn) [(6E)-4-chloranyl-6-[[[2-[(3,5-dimethyl-1H-pyrazol-4-yl)sulfanyl]phenyl]amino]methylidene]-2-nitro-cyclohexa-2,4-dien-1-one] was less than 3.52.
The value for `C=CC1=C(C(=O)O)N2C(=O)[C@@H](NC(=O)C(N=O)c3csc(N)n3)[C@H]2SC1` (stereo partly drawn) [(6R,7R)-7-[[2-(2-azanyl-1,3-thiazol-4-yl)-2-hydroxyimino-ethanoyl]amino]-3-ethenyl-8-oxidanylidene-5-thia-1-azabicyclo[4.2.0]oct-2-ene-2-carboxylic acid] was 4.30.
The compound `CCn1nc(C)c(C=C2CCCC3=C2OC(=N)C(C#N)C3c2c(C)nn(CC)c2C)c1C` (stereo not drawn) [(8E)-2-amino-4-(1-ethyl-3,5-dimethyl-1H-pyrazol-4-yl)-8-[(1-ethyl-3,5-dimethyl-1H-pyrazol-4-yl)methylene]-5,6,7,8-tetrahydro-4H-chromene-3-carbonitrile] showed a pEC50 of 4.44.
The figure for `CCOC(=O)N1CCC2=C(C#N)C(=N)C(C#N)(C#N)[C@H](c3ccsc3)[C@H]2C1` [(8R,8aR)-6-amino-5,7,7-tricyano-8-(3-thienyl)-1,3,8,8a-tetrahydroisoquinoline-2-carboxylic acid ethyl ester] is 4.10; for `N#CC1=C2CCOC[C@@H]2[C@@H](c2ccsc2)C(C#N)(C#N)C1=N` [(8R,8aR)-6-amino-8-(3-thienyl)-1,3,8,8a-tetrahydroisochromene-5,7,7-tricarbonitrile] it is less than 3.52.
Take `CN1CCC2=C(C#N)C(=N)C(C#N)(C#N)[C@H](c3cccc(Cl)c3)C2C1` (stereo partly drawn) [(8S)-6-amino-8-(3-chlorophenyl)-2-methyl-1,3,8,8a-tetrahydroisoquinoline-5,7,7-tricarbonitrile]: the pEC50 was 4.90.
With `CC(C)(C)OC(=O)N1CCC2=C(C#N)C(=N)C(C#N)(C#N)[C@H](c3cccnc3)[C@H]2C1` [(8S,8aR)-6-amino-5,7,7-tricyano-8-(3-pyridinyl)-1,3,8,8a-tetrahydroisoquinoline-2-carboxylic acid tert-butyl ester], the pEC50 is 4.21.
Compound `C[C@@H]1O[C@@H](O[C@@H]2[C@@H](O)[C@H](OCCc3ccc(O)c(O)c3)O[C@H](CO)[C@H]2OC(=O)/C=C/c2ccc(O)c(O)c2)[C@H](O)[C@H](O)[C@H]1O` [((2R,3R,4R,5R,6R)-6-(3,4-dihydroxyphenethoxy)-5-hydroxy-2-(hydroxymethyl)-4-((2S,3R,4R,5R,6S)-3,4,5-trihydroxy-6-methyltetrahydro-2H-pyran-2-yloxy)tetrahydro-2H-pyran-3-yl) 3-(3,4-dihydroxyphenyl)acrylate] gave a pEC50 of 4.69.
The figure for `COc1ccc(C(=O)CC=Nc2ccc([N+](=O)[O-])cc2C)c(OC)c1` [(E)-1-(2,4-dimethoxyphenyl)-3-(2-methyl-4-nitro-anilino)prop-2-en-1-one] is less than 3.52; for `COc1ccc(C(=O)CC=Nc2ccc([N+](=O)[O-])cc2C)cc1OC` [(E)-1-(3,4-dimethoxyphenyl)-3-(2-methyl-4-nitro-anilino)prop-2-en-1-one] it is 4.26; for `O=C(CC=Nc1ccc([N+](=O)[O-])cc1)c1ccc(Br)cc1` [(E)-1-(4-bromophenyl)-3-(4-nitroanilino)-2-propen-1-one] it is less than 3.52.
`Cc1ccc(N=CCC(=O)c2sc(-c3ccccc3)nc2C)cc1` [(E)-1-(4-methyl-2-phenyl-1,3-thiazol-5-yl)-3-(4-toluidino)-2-propen-1-one] had a pEC50 of 4.33.

Source of the values: BindingDB's records for doi:10.7270/Q28G8J4C (Broad Institute, 2009).
